The text below walks through data of publication PMC12206033, “Selective inhibition of TRPV3 channel by natural rosmarinic acid and its analogs for alleviation of skin lesions through downregulation of NF-κB pathway” (The Journal of Biological Chemistry, 2025).

For data set [1], the target named is T1, hTRPV3 (Homo sapiens, UniProt Q8NET8).
T1 construct: expressed in transfected cells; host or cells: HEK293T
T1 sequence (Q8NET8 1-790): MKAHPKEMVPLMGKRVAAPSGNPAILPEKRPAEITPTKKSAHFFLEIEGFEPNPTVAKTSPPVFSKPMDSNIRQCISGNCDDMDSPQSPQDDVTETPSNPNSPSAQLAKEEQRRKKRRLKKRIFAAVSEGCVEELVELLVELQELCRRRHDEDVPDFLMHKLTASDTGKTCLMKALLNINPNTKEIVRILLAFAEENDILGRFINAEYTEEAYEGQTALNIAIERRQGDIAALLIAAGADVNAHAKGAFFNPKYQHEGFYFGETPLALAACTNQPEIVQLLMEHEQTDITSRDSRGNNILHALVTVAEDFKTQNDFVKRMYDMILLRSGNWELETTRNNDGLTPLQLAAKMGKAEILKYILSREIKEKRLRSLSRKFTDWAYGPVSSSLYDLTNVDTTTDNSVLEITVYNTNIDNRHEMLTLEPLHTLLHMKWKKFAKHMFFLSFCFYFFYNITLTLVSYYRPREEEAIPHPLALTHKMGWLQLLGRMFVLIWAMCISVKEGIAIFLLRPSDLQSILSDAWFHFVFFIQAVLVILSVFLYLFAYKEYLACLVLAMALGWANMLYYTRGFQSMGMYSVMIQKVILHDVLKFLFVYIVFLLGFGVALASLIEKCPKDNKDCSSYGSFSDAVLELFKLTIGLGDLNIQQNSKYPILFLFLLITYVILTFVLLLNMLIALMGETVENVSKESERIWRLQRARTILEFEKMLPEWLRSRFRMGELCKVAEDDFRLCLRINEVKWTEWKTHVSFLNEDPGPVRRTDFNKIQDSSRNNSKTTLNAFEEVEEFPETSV
Kind of data set: single-channel inside-out patch recordings of hTRPV3 in HEK293T cells. Format: cell-based. Conditions: 2-APB 50 μM or Car 300 μM alone, n = 5. The method, then: HEK293T cell line was obtained from the Cell Resource Center, Peking Union Medical College. HEK293T cells were maintained in Dulbecco’s modified Eagle’s medium (DMEM, Gibco) supplemented with 10% fetal bovine serum at 37 °C with 5% CO2. HEK293T cells were seeded onto glass coverslips 1 day in advance and transiently transfected with […] complementary deoxyribonucleic acids of human TRPV3 (hTRPV3, accession number NM_145068.4), hTRPV1 (accession number NM_080704.3), mTRPV2 (accession number NM_011706.2), hTRPV4 (accession number NM_021625.5), hTRPA1 (accession number NM_007332.3), and hTRPM8 (accession number NM_024080.5) through Lipofectamine 2000 (Invitrogen) following the manufacture’s protocol. The next day, determine the plasmid transfection status by observing green fluorescence based on expression of enhanced GFP as an indicator. […] As for the relative fluorescence intensity, we convert the image to 8 bit grayscale using ImageJ (Https://imagej.net/software/fiji/downloads) and set an appropriate threshold value to reduce background noise and enhance the image contrast.
(§1) All patch-clamp recordings were conducted 16 to 24 h after transfection using an EPC10 amplifier powered by PatchMaster software (HEKA) (https://www.heka.com/downloads/downloads_main.html#down_patchmaster) at room temperature. The borosilicate glass pipettes were pulled using a DMZ universal electrode puller (Zeitz-Instruments GmbH) to achieve the resistances of three to 5 MΩ (for whole-cell recordings) or five to 9 MΩ (for inside-out patch recordings). Currents were recorded at a potential ramp from −100 mV to +100 mV for 1000 ms with 1000-ms intervals (for whole-cell recordings) or a persistent potential of −60 mV (inside-out patch recordings). Both pipette solution and bath solution contained (in mM): 130 NaCl, 3 Hepes, and 0.2 EDTA (pH = 7.2–7.4). All recording data were analyzed using Igor Pro (Wave-metrics) (https://www.wavemetrics.com/order/order_igordownloads.htm) and Origin 8.6 (Origin Lab) (https://www.originlab.com/doc/zh/Quick-Help/Download-Installer).

The target in data set [2] is T1, hTRPV3. In words: whole-cell patch-clamp of hTRPV3 currents in HEK293T cells activated by 2-APB. Format: cell-based. Particulars: for inhibition at 50 µM: HEK-293T, compound 50 μM, agonist 2-APB 50 μM, Fig. 3I, n = 4-5, read-out: inhibition of hTRPV3 currents; for IC50: evoked by 2-APB 50 μM, outward currents at +80 mV, HEK293T, Fig. 3J, n = 5-7, read-out: IC50, inhibition of whole-cell hTRPV3 currents. As for the experimental part: (§2) HEK293T cell line was obtained from the Cell Resource Center, Peking Union Medical College. HEK293T cells were maintained in Dulbecco’s modified Eagle’s medium (DMEM, Gibco) supplemented with 10% fetal bovine serum at 37 °C with 5% CO2. HEK293T cells were seeded onto glass coverslips 1 day in advance and transiently transfected with […] complementary deoxyribonucleic acids of human TRPV3 (hTRPV3, accession number NM_145068.4), hTRPV1 (accession number NM_080704.3), mTRPV2 (accession number NM_011706.2), hTRPV4 (accession number NM_021625.5), hTRPA1 (accession number NM_007332.3), and hTRPM8 (accession number NM_024080.5) through Lipofectamine 2000 (Invitrogen) following the manufacture’s protocol. The next day, determine the plasmid transfection status by observing green fluorescence based on expression of enhanced GFP as an indicator. All WT or mutant hTRPV3 complementary deoxyribonucleic acid plasmids were confirmed by DNA sequencing. When conducting experiments on HEK293T cells transfected with G573S point mutant TRPV3 plasmid, we replaced culture medium with or without compounds after 4 h of transfection and then observed green fluorescence of HEK293T cell after 10 h. As for the relative fluorescence intensity, we convert the image to 8 bit grayscale using ImageJ (Https://imagej.net/software/fiji/downloads) and set an appropriate threshold value to reduce background noise and enhance the image contrast.
as §1

The test system of data set [3] is Car-induced ear swelling and dorsal skin inflammation in mice. Kind of data set: mouse model of ear swelling and dorsal skin inflammation induced by skin sensitizer Car (3%). It is filed as in vivo. The text has this:
Adult C57BL/6J mice (aged 6–8 weeks, weighing 20 ± 2 g) were purchased from the Beijing Vital River Laboratory Animal Technology Co. Ltd. TRPV3-KO mice were purchased from Cyagen Biosciences Inc. All mice were housed in plastic cages with natural poplar wood bedding materials, accommodating three to five mice per cage. The housing environment was maintained at a controlled room temperature of (23 ± 2) °C and humidity of (50 ± 5) %, with 12-h light/dark cycle (lights on at 7:00 AM and off at 7:00 PM). Mice had free access to food and water. All animal test protocols were approved by the Institutional Animal Care and Use Committee of Qingdao University Health Science Center and were conducted in accordance with institutional and national guidelines for the use and care of animals in experiments. All mice were anesthetized with isoflurane (1%–1.5%) using an isoflurane gas anesthesia device and were euthanized under anesthesia.
(§3) Skin sensitizer Car was dissolved in saline solution containing 30% ethanol. The dorsal skin or ear of mice was swabbed with 3% Car for four consecutive days. To investigate the effects of ROSA, it was diluted to concentration of 0.1/1/10 mM with saline and topically applied on the ear and dorsal skin once a day for 4 days. The control group only received swabs with the solvent.

The test system of data set [4] is HEK293T cells expressing hTRPV3. Kind of data set: Hoechst 33342/propidium iodide double staining cell death assay. Format: cell-based. The method, then: For cell death assay, HEK293T cells transfected with hTRPV3 were seeded in 6-well plates and randomly divided into different groups. TRPV3 and NF-κB inhibitors were added 1 h before the addition of Car. After administration of Car for 1 h, cell death was detected using Hoechst 33342/propidium iodide Double Stain Kit (Solarbio). After staining, cells were resuspended with PBS buffer. Five random view images in each group were taken under a microscope (Eclipse Ti, Nikon) and counted using ImageJ software (National Institutes of Health).

Data set [5] can be described thus: CCK-8 cell viability assay. Format: cell-based. Conditions: human, HEK293T cells expressing hTRPV3, Car 300 μM for 1 h, read-out: cell viability rate, Car alone. As for the experimental part: For cell viability assay, hTRPV3-HEK293T cells were seeded in 96-well plates for 12 to 16 h before exposed to Car in DMEM containing 2% fetal bovine serum for 1 h. TRPV3 and NF-κB inhibitors were added 1 h before the addition of Car. After removing the medium containing chemical compounds, hTRPV3-HEK293T cells were incubated with DMEM containing 10% CCK-8 (TargetMol) for 1 h. Cell viability was then assessed using the Sunrise microplate reader under the light absorbance at 450 nm (TECAN, CH).

For data set [6], the system named is TRPV3, IL-6, TNF-α, and p-P65 protein expressions. Kind of data set: Western blot of TRPV3 and NF-κB pathway proteins in mouse ear tissues. It is filed as in vivo. Particulars: mouse ear tissues treated with 3% Car; day 5. As for the experimental part:
as §3
Skin or ear skin tissues were homogenized in radioimmunoprecipitation assay buffer (Thermo Fisher Scientific) containing protease inhibitors at a ratio of 100:1 per 10 mg tissue and centrifuged at 15,000 rpm for 15 min. The protein concentration was quantified using a bicinchoninic acid kit (Thermo Fisher Scientific), followed by SDS-PAGE for Western blot analysis. Protein transfer was performed at 150 mA for 90 min, and the transferred membranes (Millipore) were incubated with primary antibodies (TRPV3 antibody, 1:1000, TNF-α antibody, 1:1000, IL-6 antibody, 1:2500, P65 antibody, 1:1000 and p-P65 antibody, 1:1000) in 5% skim milk (Becton, Dickinson and Company). […] Images were quantified using the Image Lab software (https://www.bio-rad.com/zh-cn/product/image-lab-software?ID=KRE6P5E8Z).
In general terms: A western blot detects proteins with antibodies after separation by electrophoresis.

The subject of a further data set is NF-κB p-P65. Particulars: no reference given; read-out: IC50 of NF-κB p-P65 inhibitor; cited from earlier work.
Data set [7] has as its system HEK293T cells expressing G573S-TRPV3. Kind of data set: green fluorescence of live HEK293T cells transfected with gain-of-function mutant GFP-TRPV3-G573S. Conditions: compound 20 μM. It is filed as cell-based, human. As for the experimental part:
as §2, with “All WT or mutant hTRPV3 complementary deoxyribonucleic acid plasmids were confirmed by DNA sequencing.” left out

[8] abbreviates: topical JSH-23 20 μM in 100 μl coapplied with Car for consecutive 4 days, mouse dorsal skin.
Where [9] appears, read: inhibitor 20 μM added 1 h before Car 300 μM.

With `NCCOB(c1ccccc1)c1ccccc1` [2-APB, 2-aminoethoxydiphenyl borate, reference compound], on hTRPV3 [1], the “single-channel open probability, agonist alone” value was 0.67 ± 0.05.

The inhibition is the change of the read-out against control, counted positive when it falls. Usually IC50 stands for the concentration needed to halve the response being measured. Regarding `O=C(/C=C/c1ccc(O)c(O)c1)NCCc1ccc(O)c(O)c1` [CADA, (E)-3-(3,4-dihydroxyphenyl)-N-(2-(3,4-dihydroxyphenyl)ethyl)-2-propenamide], at hTRPV3 [2], the inhibition at 50 µM was approximately 40.1% and the IC50 is 67.7 ± 22.4 µM.

As a reminder, the viability is the share of living cells, or the viability signal relative to a control. For `Cc1ccc(C(C)C)cc1O` [Car, carvacrol, reference compound], the “ear skin inflammation, thickness and ear swelling scores, Car alone” value in data set [3] (topical Car for consecutive 4 days, WT mice) was “ear skin inflammation with significantly increased thickness and ear swelling scores”. The “cell death ratio, Car alone” value in data set [4] (Car 300 μM for 1 h, vehicle control 8%) is listed as 30%. Moreover, in data set [5], the viability at 1 h, 300 μM was 72%. Further, in data set [6], the “protein expressions of TRPV3, IL-6, TNF-α, and p-P65, Car alone” value was “upregulated”. For the same compound, the “single-channel open probability, agonist alone” value at hTRPV3 [1] was 0.77 ± 0.09.

Take `Cc1ccc(NCCCc2ccccc2)c(N)c1` [JSH-23]: in data set [3] (setting [8]), the dermatitis scores entry is on record as “reduction of dermatitis scores” and the dorsal skin inflammation result is “significant alleviation of the dorsal skin inflammation”. Besides, the cell death ratio in data set [4] (inhibitor 5 μM added 1 h before Car 300 μM) was determined as 21%. Further, the cell death ratio in data set [4] (setting [9]) is 17%. Besides, in the data set on NF-κB p-P65, the IC50 is 7.1 µM. For the same compound, the “green fluorescence of live cells” value in data set [7] was “robust green fluorescence”.

As for `COC(=O)[C@@H](Cc1ccc(O)c(O)c1)OC(=O)/C=C/c1ccc(O)c(O)c1` [MROSA, methyl rosmarinate], on hTRPV3 [2], the inhibition at 50 µM turned out to be 9 ± 5.2% and the IC50 was 157 ± 34.5 µM.

As to `N.N.N.N.N.N.N.N.N.N.N.N.N.N.[Cl-].[Cl-].[Cl-].[Cl-].[Cl-].[Cl-].[O-2].[O-2].[Ru+3].[Ru+3].[Ru+4]` [RR, ruthenium red], the cell death ratio in data set [4] (setting [9]) came to 23%. Besides, in data set [7], the “green fluorescence of live cells” value is given as “robust green fluorescence”.
